Measurements: patent publication US20170152258A9, “Substituted Pyridopyrazines as Syk Inhibitors” (HUTCHISON MEDIPHARMA LIMITED, priority 2012, published 2017)

Target: T1, VEGFR-2 (KDR) (Homo sapiens, UniProt P35968)
T1 construct: purchased Invitrogen PV3660
Assay: Transcreener Kinase Assay of VEGFR-2 (KDR)
Assay type: biochemical
Details: recombinant human KDR, Transcreener FP
Procedure: Transcreener Kinase Assay of VEGFR-2 (KDR)
• 1) Transcreenen™ KINASE Assy kit: Bellbrook Labs., 3003-10K; • 2) Recombinant human KDR: Invitrogen, PV3660; • 3) Poly E4Y (substrate): Sigma, P0275; 5 mg/mL, dissolved in MilliQ water; • 4) Assay buffer: 67 mM HEPES, 0.013% Triton X-100, 27 mM MgCl2, 0.67 mM MnCl2, 1.25 mM DTT, PH 7.4; • 5) 10 mM ATP: Invitrogen, PV3227; • 6) 500 mM EDTA: Invitrogen, 15575-038; • 7) 96 well black Greiner plate: Greiner, 675076.
• 1) Dilute the compound to 5 folds of final concentrations, keeping the DMSO concentration at 5%. The final concentrations are 1, 0.33, 0.11, 0.037, 0.012, 0.004, 0.0014, 0.0005 μM; and the final concentration of DMSO is 1%. • 2) Prepare Enzyme/Substrate stock, Recombinant human KDR and Poly E4Y are both diluted in assay buffer. The final concentration is KDR (0.3 ng/μL), Poly E4Y (62.5 ng/μL). […]
Wherein: • 1) Compound well [ADP] represents the ADP concentration of compound well. • 2) Positive control well [ADP] represents the ADP concentration of 5% DMSO well • 3) Conversion of mP value to ADP concentration based on the formula which determined by standard curve. […] (www.bellbrooklabs.com). • IC50: calculated using XL-Fit 2.0 software.

T1 sequence (P35968 20-1356): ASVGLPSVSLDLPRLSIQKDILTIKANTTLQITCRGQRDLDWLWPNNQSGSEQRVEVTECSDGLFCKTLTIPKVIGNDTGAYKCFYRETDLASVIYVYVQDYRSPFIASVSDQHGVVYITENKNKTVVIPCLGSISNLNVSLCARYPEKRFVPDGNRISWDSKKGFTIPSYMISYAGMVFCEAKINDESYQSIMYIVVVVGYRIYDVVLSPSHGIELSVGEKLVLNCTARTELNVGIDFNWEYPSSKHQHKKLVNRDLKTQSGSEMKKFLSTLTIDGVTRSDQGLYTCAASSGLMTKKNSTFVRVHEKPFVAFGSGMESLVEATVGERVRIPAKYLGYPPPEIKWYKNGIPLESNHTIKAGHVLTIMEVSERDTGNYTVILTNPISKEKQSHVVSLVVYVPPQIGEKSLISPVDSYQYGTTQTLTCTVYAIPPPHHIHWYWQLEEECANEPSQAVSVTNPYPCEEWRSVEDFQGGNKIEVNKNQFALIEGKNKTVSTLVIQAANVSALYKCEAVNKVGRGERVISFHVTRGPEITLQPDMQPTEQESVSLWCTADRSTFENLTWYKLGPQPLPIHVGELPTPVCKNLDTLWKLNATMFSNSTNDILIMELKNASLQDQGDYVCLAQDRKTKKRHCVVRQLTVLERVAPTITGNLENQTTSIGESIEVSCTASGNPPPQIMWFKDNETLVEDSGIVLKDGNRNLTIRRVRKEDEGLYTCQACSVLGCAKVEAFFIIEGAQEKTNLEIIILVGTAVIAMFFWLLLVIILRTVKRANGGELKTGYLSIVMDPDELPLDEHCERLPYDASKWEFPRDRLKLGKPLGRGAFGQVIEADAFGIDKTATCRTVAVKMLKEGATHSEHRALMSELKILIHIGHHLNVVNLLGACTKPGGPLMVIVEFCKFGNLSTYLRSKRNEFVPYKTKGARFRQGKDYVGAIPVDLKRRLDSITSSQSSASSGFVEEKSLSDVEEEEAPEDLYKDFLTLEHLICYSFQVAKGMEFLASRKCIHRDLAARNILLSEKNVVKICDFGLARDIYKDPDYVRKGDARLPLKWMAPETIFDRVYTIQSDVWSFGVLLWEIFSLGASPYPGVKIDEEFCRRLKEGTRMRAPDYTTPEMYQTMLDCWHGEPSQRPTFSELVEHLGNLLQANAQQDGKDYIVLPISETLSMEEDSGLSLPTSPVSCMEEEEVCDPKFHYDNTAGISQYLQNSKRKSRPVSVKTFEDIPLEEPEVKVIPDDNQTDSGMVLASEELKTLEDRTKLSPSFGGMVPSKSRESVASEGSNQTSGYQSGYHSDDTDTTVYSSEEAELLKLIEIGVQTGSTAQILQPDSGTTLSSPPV

| IC50 [nM] | Structure (SMILES) |
| --- | --- |
| 1130 | CC(=O)N1CCO[C@H](COc2nc(-c3ccc4c(c3)CCOC4(C)C)cc3nccnc23)C1 [Compound 300] |
| 748 | CC(C)(O)c1ccc(-c2cc3nccnc3c(OC[C@@H]3CN(S(C)(=O)=O)CCO3)n2)cc1 [Compound 219] |
